Patent US8143421B2, “Broadspectrum substituted benzimidazole sulfonamide HIV protease inhibitors” (priority 2002, dated 2012)

Tests used:
HIV-1 strain LAI = experiment: Cellular anti-HIV assay, MT4 cells, MTT readout, wild type HIV-1 strain LAI; type: cell-based; settings: for pIC50 (LAI): MT4 cells, five days, HIV-1 strain LAI; for WT (pIC50 against wild type HIV-LAI strain): Table 4
Procedure: The compounds of the present invention were examined for anti-viral activity in a cellular assay. […] The cellular assay was performed according to the following procedure.

mutant C = experiment: Antiviral spectrum, fold resistance towards mutant C; type: cell-based; settings: FR=IC50(mutant strain)/IC50(HIV-1 strain LAI)
Procedure: (§1) Because of the increasing emergence of drug resistant HIV strains, the present compounds were tested for their potency against clinically isolated HIV strains harboring several mutations. These mutations are associated with resistance to protease inhibitors and result in viruses that show various degrees of phenotypic cross-resistance to the currently commercially available drugs such as for instance saquinavir, ritonavir, nelfinavir, indinavir and amprenavir. The viral strains R13025, R13027, R13028, R13029, R13034, R13080, T13127 and R13363 contained mutations as indicated below in Table 3.

mutant A = type: cell-based; settings: FR=IC50(mutant strain)/IC50(HIV-1 strain LAI)
Procedure: (§2) HIV- or mock-infected MT4 cells were incubated for five days in the presence of various concentrations of the inhibitor. […] Cell viability is measured by measuring the concentration of MTT, a yellow, water soluble tetrazolium dye that is converted to a purple, water insoluble formazan in the mitochondria of living cells only. Upon solubilization of the resulting formazan crystals with isopropanol, the absorbance of the solution is monitored at 540 nm. The values correlate directly to the number of living cells remaining in the culture at the completion of the five day incubation. The inhibitory activity of the compound was monitored on the virus-infected cells and was expressed as IC50 and IC90. These values represent the amount of the compound required to protect 50% and 90%, respectively, of the cells from the cytopathogenic effect of the virus. […] The selectivity index (SI) (ratio CC50/IC50) is an indication of the selectivity of the anti-HIV activity of the inhibitor. Wherever results are reported as e.g. pIC50 or pCC50 values, the result is expressed as the negative logarithm of the result expressed as IC50 or CC50 respectively.
(§3) Because of the increasing emergence of drug resistant HIV strains, the present compounds were tested for their potency against clinically isolated HIV strains harboring several mutations. […] The viral strains R13025, R13027, R13028, R13029, R13034, R13080, T13127 and R13363 contained mutations as indicated below in Table 3.
(§4) As a measure of the broad spectrum activity of the present compounds, the fold resistance (FR), defined as FR=IC50(mutant strain)/IC50(HIV-1 strain LAI), was determined.

mutant E = type: cell-based; settings: FR=IC50(mutant strain)/IC50(HIV-1 strain LAI)
Procedure: as §2, §3, §4

mock-infected MT4 cells = experiment: in vitro
Procedure: as §2, §4

mutant F = experiment: Antiviral spectrum, fold resistance towards mutant F; type: cell-based; settings: FR=IC50(mutant strain)/IC50(HIV-1 strain LAI)
Procedure: as §1

mutant G = experiment: Antiviral spectrum, fold resistance towards mutant G; type: cell-based; settings: FR=IC50(mutant strain)/IC50(HIV-1 strain LAI)
Procedure: as §1

mutant D = experiment: Antiviral spectrum, fold resistance towards mutant D; type: cell-based; settings: FR=IC50(mutant strain)/IC50(HIV-1 strain LAI)
Procedure: as §1

mutant B = experiment: Antiviral spectrum, fold resistance towards mutant B; type: cell-based; settings: FR=IC50(mutant strain)/IC50(HIV-1 strain LAI)
Procedure: as §1

mutant H = experiment: Antiviral spectrum, fold resistance towards mutant H; type: cell-based; settings: FR=IC50(mutant strain)/IC50(HIV-1 strain LAI)
Procedure: as §1

[1] = pCC50 value as determined with mock transfected cells

Row | Molecule | pIC50 (LAI) (HIV-1 strain LAI; Table 1) | WT (pIC50 against wild type HIV-LAI strain) (HIV-1 strain LAI) | FR towards mutant C (mutant C) | FR value towards mutant A (mutant A) | FR towards mutant E (mutant E) | Tox (pCC50) (mock-infected MT4 cells) | FR towards mutant F (mutant F) | FR towards mutant G (mutant G) | FR towards mutant D (mutant D) | FR towards mutant B (mutant B) | Tox (pCC50) (mock-infected MT4 cells; [1]) | FR towards mutant H (mutant H) | pIC50 (LAI) (HIV-1 strain LAI; Table 2)
1 | COC(=O)Nc1nc2ccc(S(=O)(=O)N(CC(C)C)C[C@@H](O)[C@H](Cc3ccccc3)NC(=O)COc3c(C)cccc3C)cc2[nH]1 [Compound 6] | 8.6 | 8.6 | 2.7 | 2.9 | 1.6 | <4 | 10 | 60 | 2.1 | – | – | – | –
2 | Cc1cccc(C)c1OCC(=O)N[C@@H](Cc1ccccc1)[C@H](O)CN(CC(C)C)S(=O)(=O)c1ccc2nc(N)n(C)c2c1 [Compound 13] | 7.7 | 7.7 | 2.5 | – | 4.5 | <4 | – | – | 3.4 | 3.4 | – | – | –
3 | CC(C)CN(C[C@@H](O)[C@H](Cc1ccccc1)NC(=O)O[C@H]1CCOC1)S(=O)(=O)c1ccc2ncn(C)c2c1 [Compound 16] | 7.7 | 7.7 | 2.6 | – | 5.4 | <4.49 | 288 | – | 5.9 | – | – | – | –
4 | COC(=O)Nc1nc2ccc(S(=O)(=O)N(CC(C)C)C[C@@H](O)[C@H](Cc3ccccc3)NC(=O)COc3c(C)cc(N(C)C)cc3C)cc2[nH]1 [Compound 19] | 7.5 | 7.5 | 1.4 | 5.6 | 3.5 | – | 83 | – | 3.6 | 1.2 | <4 | – | –
5 | CC(C)CN(C[C@@H](O)[C@H](Cc1ccccc1)NC(=O)OCc1cncs1)S(=O)(=O)c1ccc2nc[nH]c2c1 [Compound 23] | 7.3 | 7.3 | 3.5 | 7.1 | 4.8 | <4 | 23 | – | 2.5 | 2.3 | – | – | –
6 | Cc1cccc(C)c1OCC(=O)N[C@@H](Cc1ccccc1)[C@H](O)CN(CC(C)C)S(=O)(=O)c1ccc2nc(N)[nH]c2c1 [Compound 36] | 6.5 | 6.5 | – | 4.4 | 3.1 | 4.19 | – | – | – | – | – | 17 | –
7 | COc1ccc(C(=O)Nc2nc3ccc(S(=O)(=O)N(CC(C)C)C[C@@H](O)[C@H](Cc4ccccc4)NC(=O)COc4c(C)cccc4C)cc3[nH]2)cc1 [Compound 37] | 6.9 | 6.9 | 0.95 | 1.0 | 1.3 | – | 7.9 | 21 | 1.9 | 0.35 | – | – | –
8 | CC(C)CN(CC(O)C(Cc1ccccc1)NC(=O)OC1COC2OCCC12)S(=O)(=O)c1ccc2nc(N)n(C)c2c1 (stereo not shown) [Compound 41] | 6.6 | 6.6 | – | 1.4 | 1.4 | <4 | – | – | – | – | – | 1.5 | –
9 | CC(C)CN(C[C@@H](O)[C@H](Cc1ccccc1)NC(=O)OC(C)(C)C)S(=O)(=O)c1ccc2ncn(CCc3ccccc3)c2c1 [Compound 43] | 6.4 | 6.4 | – | 22 | 12.6 | – | – | – | – | – | 4.99 | 28 | –
10 | Cc1cccc(C)c1OCC(=O)N[C@@H](Cc1ccccc1)[C@H](O)CN(CC(C)C)S(=O)(=O)c1ccc2ncn(CCc3ccccc3)c2c1 [Compound 47] | 6.4 | 6.4 | – | 14 | 7.8 | – | – | – | – | – | <4 | 66 | –
11 | Cc1cc(OCC(=O)N[C@@H](Cc2ccccc2)[C@H](O)CN(CC(C)C)S(=O)(=O)c2ccc3nc[nH]c3c2)no1 [Compound 49] | 6.3 | 6.3 | – | 12 | 1.0 | – | – | – | – | – | <4 | 3.5 | –
12 | CC(C)CN(C[C@@H](O)[C@H](Cc1ccccc1)NC(=O)OC1COC2OCCC12)S(=O)(=O)c1ccc2nc[nH]c2c1 (stereo partly shown) [Compound 50] | 6.9 | 6.9 | – | 1.4 | 0.83 | <4 | – | – | – | – | – | 2.8 | –
13 | CC(C)CN(C[C@@H](O)[C@H](Cc1ccccc1)NC(=O)O[C@H]1CCOC1)S(=O)(=O)c1ccc2nc(NC(=O)NCCN(C)C)[nH]c2c1 [Compound 52] | 6.1 | 6.1 | 3.5 | 4.2 | 3.4 | <5 | 4.3 | – | 3.0 | 2.9 | – | – | –
14 | CC(C)CN(C[C@@H](O)[C@H](Cc1ccccc1)NC(=O)OCc1cccnc1)S(=O)(=O)c1ccc2nc(N)[nH]c2c1 [Compound 54] | 5.8 | 5.8 | 0.42 | 1.6 | 0.42 | – | 1.7 | – | 0.46 | 0.40 | <4 | – | –
15 | CC(C)CN(C[C@@H](O)[C@H](Cc1ccccc1)NC(=O)OC1COC2OCCC12)S(=O)(=O)c1ccc2nc(N)[nH]c2c1 (stereo partly shown) [Compound 59] | 5.3 | 5.3 | – | 1.5 | 0.31 | <4 | – | – | – | – | – | 0.39 | –
16 | [(1S,2R)-2-hydroxy-3-[(2-methylpropyl)[[1-(2-methyl-propyl)benzimidazol-6-yl]sulfonyl]amino]-1-(phenylmethyl)propyl]carbamic acid, [(3R,3aS,6aR)-hexahydrofuro[2,3-b]furan-3-yl]ester [Compound 7] | 8.6 | 8.6 | 0.45 | – | 2.1 | – | 72 | 174 | 1.2 | – | <4 | – | –
17 | [(1S,2R)-3-[[(1-methylbenzimidazol-5-yl)sulfonyl](2-methyl-propyl)amino]-2-hydroxy-1-(phenylmethyl)propyl]carbamic acid, [(3R,3aS,6aR)-hexahydrofuro[2,3-b]furan-3-yl]ester [Compound 64] | – | 7.6 | – | 4.3 | 1.5 | – | – | – | – | – | <4 | 13 | 7.6
